Results on 20 compounds are retold here after patent publication US12291515B2, “Pyrrolidine derivative and use thereof” (Rushi Biotech (Hangzhou) Co., Ltd, priority 2021, dated 2025).

Holding throughout (type): cell-based
For experiment [1], the system named is Human hepatoma cell HepG2. Put plainly: CCK-8 cell proliferation assay, HepG2. The note with it: HepG2 cells, CCK-8, 24 hrs with drug, OD 450 nm. How it is done: (§1) The effect of samples on the proliferation of human tumor cells in vitro was determined by CCK-8 cell proliferation assay.
(§2) The cells were assayed through a method including the following steps:
(§3) 1) The cells were digested, counted, and prepared into a cell suspension in a corresponding culture medium (Table 1) (5×10^4 cells/ml for CFPAC-1 and RPMI 8226, and 3.5×10^4 cells/ml for rest cells). The cell suspension was added to each well of a 96-well plate in 100 μl well.
(§4) 2) Then the 96-well plate was incubated for 24 hrs in an incubator at 37° C. and 5% CO2.
(§5) 3) The drug was diluted with the culture medium to the required working concentration. 100 μl of the corresponding drug containing medium was added to each well. A negative control group (added with drug-free culture medium) was also set.
(§6) 4) Then the 96-well plate was incubated for 24 hrs in an incubator at 37° C. and 5% CO2.
(§7) 5) The 96-well plate was stained with CCK-8, and The OD value was determined at λ=450 nm.
(§8) a) 10 μl of CCK-8 was added to each well, and incubated in the incubator for another 2-3 hrs.
(§9) b) The content was mixed uniformly by shaking gently on a shaker for 10 min, and the bubbles in the 96-well plate were removed.
(§10) 6) The inhibition rate in each group was calculated.

In experiment [2] the test system is Human gastric cancer cell MKN45. Description: CCK-8 cell proliferation assay, MKN-45. The note with it: MKN-45 cells, CCK-8, 24 hrs with drug, OD 450 nm. How it is done: as §1, §2, §3, §4, §5, §6, §7, §8, §9, §10
On the technique in general: Tetrazolium dyes change colour on reduction, which living cells bring about.

Experiment [3] has as its system Human esophageal cancer cell TE-1. Put plainly: CCK-8 cell proliferation assay, TE-1. The note with it: TE-1 cells, CCK-8, 24 hrs with drug, OD 450 nm. How it is done: as §1, §2, §3, §4, §5, §6, §7, §8, §9, §10
Experiment [4] relates to Human pancreatic cancer cell CFPAC-1. Description: CCK-8 cell proliferation assay, CFPAC-1. The following applies: CFPAC-1 cells, CCK-8, 24 hrs with drug, OD 450 nm. How it is done: as §1, §2, §3, §4, §5, §6, §7, §8, §9, §10
Experiment [5] relates to Human multiple myeloma cell RPMI 8226. Description: CCK-8 cell proliferation assay, RPMI8226. The note with it: RPMI8226 cells, CCK-8, 24 hrs with drug, OD 450 nm. The protocol:
as §1, §2, §3, §4, §5, §6, §7, §8, §9, §10

Experiment [6] concerns Human colon cancer cell HCT-116. Description: CCK-8 cell proliferation assay, HCT116. The note with it: HCT116 cells, CCK-8, 24 hrs with drug, OD 450 nm. The protocol:
as §1, §2, §3, §4, §5, §6, §7, §8, §9, §10

Experiment [7] concerns Human lung adenocarcinoma cell A549. Description: CCK-8 cell proliferation assay, A549. The following applies: A549 cells, CCK-8, 24 hrs with drug, OD 450 nm. The protocol: as §1, §2, §3, §4, §5, §6, §7, §8, §9, §10

The term IC50 denotes the concentration needed to halve the response being measured. A lower IC50 goes with greater potency.

For the compound `O=C(NCCCCCC1CCN(C(=O)c2ccco2)C1)Nc1cccnc1` (centres unmarked) [BSS-TP028, 1-(5-(1-(furoyl)pyrrolidin-3-yl)pentyl)-2-(3-pyridinyl)urea], the IC50 in experiment [1] amounted to 59 nM; in experiment [2], 44 nM; in experiment [3], 57 nM; in experiment [4], 31 nM; in experiment [5] it was 42 nM; in experiment [6] it was 63 nM. Further, the midpoint of inhibition in experiment [7], the IC50, lay at 41 nM.
With `O=C(NCCCCCC1CCN(C(=O)c2occc2F)C1)Nc1ccncc1` (centres unmarked) [BSS-TP030], the half-inhibitory concentration (IC50) in experiment [1] is 63 nM; in experiment [2] it was 57 nM; in experiment [3], 60 nM; in experiment [4], 40 nM; in experiment [5], 46 nM; in experiment [6], 62 nM. Moreover, the IC50 in experiment [7] came to 42 nM.
For `O=C(NCCCCCC1CCN(C(=O)c2[nH]ccc2F)C1)Nc1ccncc1` (centres unmarked) [BSS-TP031], the IC50 worked out at 51 nM in experiment [1]; 45 nM in experiment [2]; 68 nM in experiment [3]; 33 nM in experiment [4]; 39 nM in experiment [5]; 53 nM in experiment [6]. Moreover, the IC50 in experiment [7] was 59 nM.
As to `COc1cccc(OC)c1C(=O)N1CCC(CCCCCNC(=O)Nc2cc(F)nc(F)c2)C1` (centres unmarked) [BSS-TP032], the IC50 in experiment [1] turned out to be 99 nM; in experiment [2], 74 nM; in experiment [3], 117 nM; in experiment [4], 39 nM; in experiment [5] it was 58 nM; in experiment [6], 69 nM. For the same compound, half-maximal inhibition in experiment [7] (IC50) required 73 nM.
Regarding `COc1cccc(OC)c1C(=O)N1CCC(CCCCCNC(=O)Nc2cccnc2)C1` (centres unmarked) [BSS-TP033, 1-(5-(1-(2,6-dimethoxybenzoyl)pyrrolidin-3-yl)pentyl)-2-(3-pyridinyl) urea], the IC50 worked out at 82 nM in experiment [1]; 65 nM in experiment [2]; 87 nM in experiment [3]; 56 nM in experiment [4]; 53 nM in experiment [5]; 72 nM in experiment [6]. In experiment [7], this compound came in with an IC50 of 64 nM.
As to `O=C(NCCCCCC1CCN(C(=O)c2ccco2)C1)Nc1cc(F)nc(F)c1` (centres unmarked) [BSS-TP035], the IC50 in experiment [1] was found to be 81 nM; in experiment [2], 47 nM; in experiment [3], 73 nM; in experiment [4], 35 nM; in experiment [5], 29 nM; in experiment [6], 66 nM. Further, in experiment [7], the midpoint of inhibition, the IC50, lay at 39 nM.
Turning to `O=C(NCCCCCC1CCN(C(=O)c2cc3ccccc3o2)C1)Nc1cc(F)nc(F)c1` (centres unmarked) [BSS-TP036], the IC50 in experiment [1] worked out at 126 nM; in experiment [2] it was 53 nM; in experiment [3], 94 nM; in experiment [4], 42 nM; in experiment [5] it was 49 nM; in experiment [6], 78 nM. Further, in experiment [7], half-maximal inhibition (IC50) was put at 58 nM.
On to `O=C(NCCCCC[C@H]1CCN(C(=O)c2cccs2)C1)Nc1ccncc1` [BSS-TP039, (S)-1-(5-(1-(2-thienylformyl)pyrrolidin-3-yl)pentyl)-2-(4-pyridinyl)urea], for which the IC50 in experiment [1] is 60 nM; in experiment [2] it was 47 nM; in experiment [3], 73 nM; in experiment [4], 25 nM; in experiment [5], 38 nM; in experiment [6], 71 nM. Besides, in experiment [7], inhibition was half-maximal at 46 nM (IC50).
For the compound `O=C(NCCCCC[C@@H]1CCN(C(=O)c2cccs2)C1)Nc1ccncc1` [BSS-TP040, (R)-1-(5-(1-(2-thienylformyl)pyrrolidin-3-yl)pentyl)-2-(4-pyridinyl)urea], the IC50 was determined as 49 nM in experiment [1]; 31 nM in experiment [2]; 65 nM in experiment [3]; 29 nM in experiment [4]; 24 nM in experiment [5]; 52 nM in experiment [6]. Inhibition in experiment [7] was half-maximal at 43 nM (IC50).
For `O=C(NCCCCCCC1CCN(C(=O)c2ccccc2)C1)Nc1ccncc1` (centres unmarked) [BSS-TP101, 1-(6-(1-(benzoyl)pyrrolidin-3-yl)hexyl)-2-(4-pyridinyl)urea], the IC50 came out at 50 nM in experiment [1]; 39 nM in experiment [2]; 64 nM in experiment [3]; 29 nM in experiment [4]; 21 nM in experiment [5]; 22 nM in experiment [6]. The same compound had an IC50 in experiment [7] of 35 nM.
Regarding `COc1cccc(OC)c1C(=O)N1CCC(CCCCCCNC(=O)Nc2ccncc2)C1` (centres unmarked) [BSS-TP102, 1-(6-(1-(2,6-dimethoxybenzoyl)pyrrolidin-3-yl)hexyl)-2-(4-pyridinyl) urea], the IC50 turned out to be 35 nM in experiment [1]; 30 nM in experiment [2]; 29 nM in experiment [3]; 13 nM in experiment [4]; 10 nM in experiment [5]; 27 nM in experiment [6]. Besides, the IC50 in experiment [7] turned out to be 23 nM.
Take `O=C(NCCCCCCC1CCN(C(=O)c2cccs2)C1)Nc1ccncc1` (centres unmarked) [BSS-TP103, 1-(6-(1-(2-thienylformyl)pyrrolidin-3-yl)hexyl)-2-(4-pyridinyl)urea]: the IC50 is 43 nM in experiment [1]; 36 nM in experiment [2]; 50 nM in experiment [3]; 31 nM in experiment [4]; 15 nM in experiment [5]; 88 nM in experiment [6]. The compound also returned an IC50 in experiment [7] of 28 nM.
For `O=C(NCCCCCCC1CCN(C(=O)c2ccc[nH]2)C1)Nc1ccncc1` (centres unmarked) [BSS-TP104, 1-(6-(1-(2-pyrrolylformyl)pyrrolidin-3-yl)hexyl)-2-(4-pyridinyl)urea], the IC50 in experiment [1] amounted to 75 nM; in experiment [2], 46 nM; in experiment [3] it was 62 nM; in experiment [4], 33 nM; in experiment [5], 29 nM; in experiment [6], 57 nM. Besides, in experiment [7], 33 nM corresponded to half-maximal inhibition (IC50).
On to `O=C(NCCCCCCC1CCN(C(=O)c2ccco2)C1)Nc1ccncc1` (centres unmarked) [BSS-TP105, 1-(6-(1-(furoyl)pyrrolidin-3-yl)hexyl)-2-(4-pyridinyl)urea], for which the IC50 in experiment [1] was 61 nM; in experiment [2], 32 nM; in experiment [3], 76 nM; in experiment [4], 37 nM; in experiment [5], 20 nM; in experiment [6], 53 nM. This compound came in with an IC50 in experiment [7] of 43 nM.
As to `O=C(NCCCCCCC1CCN(C(=O)C2CCCN2)C1)Nc1ccncc1` (centres unmarked) [BSS-TP106, 1-(6-(1-(2-pyrrolidinylformyl)pyrrolidin-3-yl)hexyl)-2-(4-pyridinyl)urea], the IC50 in experiment [1] is 119 nM; in experiment [2] it was 58 nM; in experiment [3] it was 97 nM; in experiment [4] it was 46 nM; in experiment [5], 47 nM; in experiment [6], 66 nM. This compound showed a 50% inhibitory concentration (IC50) in experiment [7] of 68 nM.
For `O=C(NCCCCCCC1CCN(C(=O)C2CCCO2)C1)Nc1ccncc1` (centres unmarked) [BSS-TP107, 1-(6-(1-(2-tetrahydrofurylformyl)pyrrolidin-3-yl)hexyl)-2-(4-pyridinyl)urea], the IC50 in experiment [1] came to 137 nM; in experiment [2], 53 nM; in experiment [3], 82 nM; in experiment [4] it was 58 nM; in experiment [5], 51 nM; in experiment [6], 76 nM. This compound also showed an IC50 in experiment [7] of 55 nM.
Take `O=C(NCCCCCCC1CCN(C(=O)C2CCCS2)C1)Nc1ccncc1` (centres unmarked) [BSS-TP108, 1-(6-(1-(2-tetrahydrothienylformyl)pyrrolidin-3-yl)hexyl)-2-(4-pyridinyl)urea]: the IC50 in experiment [1] was 92 nM; in experiment [2] it was 49 nM; in experiment [3] it was 73 nM; in experiment [4], 41 nM; in experiment [5], 32 nM; in experiment [6], 59 nM. Also, the IC50 in experiment [7] amounted to 49 nM.
As for `O=C(NCCCCCCC1CCN(C(=O)c2ccccc2)C1)Nc1cccnc1` (centres unmarked) [BSS-TP109, 1-(6-(1-(benzoyl)pyrrolidin-3-yl)hexyl)-2-(3-pyridinyl)urea], the IC50 in experiment [1] came to 71 nM; in experiment [2], 53 nM; in experiment [3] it was 88 nM; in experiment [4], 26 nM; in experiment [5] it was 23 nM; in experiment [6], 47 nM. This compound returned a 50% inhibitory concentration (IC50) in experiment [7] of 29 nM.
For the compound `O=C(NCCCCCCC1CCN(C(=O)c2cccs2)C1)Nc1cccnc1` (centres unmarked) [BSS-TP110, 1-(6-(1-(2-thienylformyl)pyrrolidin-3-yl)hexyl)-2-(3-pyridinyl)urea], the half-inhibitory concentration (IC50) in experiment [1] was found to be 116 nM; in experiment [2] it was 75 nM; in experiment [3], 109 nM; in experiment [4], 52 nM; in experiment [5], 56 nM; in experiment [6], 73 nM. Besides, in experiment [7], the IC50 amounted to 44 nM.
For `O=C(NCCCCCCC1CCN(C(=O)c2ccco2)C1)Nc1cccnc1` (centres unmarked) [BSS-TP111, 1-(6-(1-(furoyl)pyrrolidin-3-yl)hexyl)-2-(3-pyridinyl)urea], the IC50 in experiment [1] was determined as 87 nM; in experiment [2] it was 77 nM; in experiment [3], 133 nM; in experiment [4] it was 42 nM; in experiment [5], 53 nM; in experiment [6] it was 62 nM. This compound also came in with an IC50 in experiment [7] of 61 nM.
